From patent publication US20110053770A1, “SUBSTITUTED AMINOTHIAZOLES AND THEIR USE AS FUNGICIDES” (BAYER CROPSCIENCE AG, priority 2009, published 2011)
Marks after values point to notes of the source that are not given here.

Test: logP by HPLC on reversed-phase columns (C 18), EEC directive 79/831 Annex V.A8
Type: physicochemical
Conditions: for log P (***) / log P (**): LC-MS; for log P (***): neutral range, pH 7.8, 0.001 molar aqueous ammonium bicarbonate and acetonitrile; for log P (*) / log P (**): acidic range; for log P (*): pH 2.3, 0.1% aqueous phosphoric acid and acetonitrile; for log P (**): pH 2.7, 0.1% aqueous formic acid and acetonitrile
Description: Calibration was carried out using unbranched alkan-2-ones (having from 3 to 16 carbon atoms) with known logP values (the logP values were determined by the retention times using linear interpolation between two successive alkanones).

Fc1cccc(F)c1Oc1ccccc1-c1csc(N=C2CCCCN2)n1 [compound 76, 4-[2-(2,6-difluorophenoxy)phenyl]-N-[(2E/Z)-piperidin-2-ylidene]-1,3-thiazole-2-amine]
log P (***): 3.78 | log P (*): 1.8

Fc1ccc(Oc2ccccc2-c2csc(N=C3CCCCN3)n2)c(F)c1F [compound 77, N-[(2E/Z)-piperidin-2-ylidene]-4-[2-(2,3,4-trifluorophenoxy)phenyl]-1,3-thiazole-2-amine]
log P (***): 4.17 | log P (*): 2.01

Fc1ccc(Oc2ccccc2-c2csc(N=C3CCCCN3)n2)cc1F [compound 78, 4-[2-(3,4-difluorophenoxy)phenyl]-N-[(2E/Z)-piperidin-2-ylidene]-1,3-thiazole-2-amine]
log P (***): 4.18 | log P (*): 1.83

Cc1ccc(Oc2ccccc2-c2csc(N=C3CCCCN3)n2)cc1 [compound 79, 4-[2-(4-methylphenoxy)phenyl]-N-[(2E/Z)-piperidin-2-ylidene]-1,3-thiazole-2-amine]
log P (***): 4.51 | log P (*): 2.17

Fc1ccc(F)c(Oc2ccccc2-c2csc(N=C3CCCCN3)n2)c1 [compound 80, 4-[2-(2,5-difluorophenoxy)phenyl]-N-[(2E/Z)-piperidin-2-ylidene]-1,3-thiazole-2-amine]
log P (***): 3.98 | log P (*): 1.94

c1ccc(Cc2ccccc2-c2csc(N=C3CCCCN3)n2)cc1 [compound 81, 4-(2-benzylphenyl)-N-[(2E/Z)-piperidin-2-ylidene]-1,3-thiazole-2-amine]
log P (***): 2.02***

Fc1cc(F)c(Oc2ccccc2-c2csc(N=C3CCCCN3)n2)c(F)c1 [compound 82, N-[(2E/Z)-piperidin-2-ylidene]-4-[2-(2,4,6-trifluorophenoxy)phenyl]-1,3-thiazole-2-amine]
log P (***): 3.96 | log P (*): 2.02

Fc1cccc(Oc2ccccc2-c2csc(N=C3CCCCN3)n2)c1 [compound 83, 4-[2-(3-fluorophenoxy)phenyl]-N-[(2E/Z)-piperidin-2-ylidene]-1,3-thiazole-2-amine]
log P (*): 1.95*

Brc1ccc(Oc2ccccc2-c2csc(N=C3CCCCN3)n2)cc1 [compound 84, 4-[2-(4-bromophenoxy)phenyl]-N-[(2E/Z)-piperidin-2-ylidene]-1,3-thiazole-2-amine]
log P (*): 2.14*

Clc1cccc(Oc2ccccc2-c2csc(N=C3CCCCN3)n2)c1 [compound 85, 4-[2-(3-chlorophenoxy)phenyl]-N-[(2E/Z)-piperidin-2-ylidene]-1,3-thiazole-2-amine]
log P (*): 2.16*

Brc1ccccc1Oc1ccccc1-c1csc(N=C2CCCCN2)n1 [compound 86, 4-[2-(2-bromophenoxy)phenyl]-N-[(2E/Z)-piperidin-2-ylidene]-1,3-thiazole-2-amine]
log P (***): 4.38 | log P (*): 2.06

Brc1cccc(Oc2ccccc2-c2csc(N=C3CCCCN3)n2)c1 [compound 87, 4-[2-(3-bromophenoxy)phenyl]-N-[(2E/Z)-piperidin-2-ylidene]-1,3-thiazole-2-amine]
log P (***): 4.71 | log P (*): 2.19

Fc1ccc(Cc2ccccc2-c2csc(N=C3CCCCN3)n2)c(F)c1 [compound 88, 4-[2-(2,4-difluorobenzyl)phenyl]-N-[(2E/Z)-piperidin-2-ylidene]-1,3-thiazole-2-amine]
log P (***): 4.27 | log P (*): 2.04

Clc1cc(Cl)cc(Cc2ccccc2-c2csc(N=C3CCCCN3)n2)c1 [compound 89, 4-[2-(3,5-dichlorobenzyl)phenyl]-N-[(2E/Z)-piperidin-2-ylidene]-1,3-thiazole-2-amine]
log P (**): 2.43 | log P (***): 5.35

Fc1ccc(Cc2ccccc2-c2csc(N=C3CCCCN3)n2)cc1 [compound 90, 4-[2-(4-fluorobenzyl)phenyl]-N-[(2E/Z)-piperidin-2-ylidene]-1,3-thiazole-2-amine]
log P (**): 1.95 | log P (***): 4.19

Clc1cccc(Cl)c1Cc1ccccc1-c1csc(N=C2CCCCN2)n1 [compound 91, 4-[2-(2,6-dichlorobenzyl)phenyl]-N-[(2E/Z)-piperidin-2-ylidene]-1,3-thiazole-2-amine]
log P (**): 2.16 | log P (***): 4.36

Clc1ccc(Cc2ccccc2-c2csc(N=C3CCCCN3)n2)cc1Cl [compound 92, 4-[2-(3,4-dichloro-benzyl)phenyl]-N-[(2E/Z)-piperidin-2-ylidene]-1,3-thiazole-2-amine]
log P (***): 5.07 | log P (*): 2.36

Clc1ccc(Cc2ccccc2-c2csc(N=C3CCCCN3)n2)cc1 [compound 93, 4-[2-(4-chlorobenzyl)-phenyl]-N-[(2E/Z)-piperidin-2-ylidene]-1,3-thiazole-2-amine]
log P (**): 2.17 | log P (***): 4.7

c1ccc(Cc2ccc(-c3csc(N=C4CCCCN4)n3)cc2)cc1 [compound 94, 4-(4-benzylphenyl)-N-[(2E/Z)-piperidin-2-ylidene]-1,3-thiazole-2-amine]
log P (**): 2.07 | log P (***): 4.28

Cc1ccc(Oc2ccccc2-c2csc(N=C3CCCN3)n2)c(C)c1 [compound 95, 4-[2-(2,4-dimethylphenoxy)phenyl]-N-[(2E/Z)-pyrrolidin-2-ylidene]-1,3-thiazole-2-amine]
log P (**): 2.52 | log P (***): 2.48

Clc1ccc(-c2csc(N=C3CCCN3)n2)cc1 [compound 96, 4-(4-chlorophenyl)-N-[(2E/Z)-pyrrolidin-2-ylidene]-1,3-thiazole-2-amine]
log P (**): 1.57**

Fc1ccc(Oc2ccc(-c3csc(N=C4CCCN4)n3)cc2)c(F)c1 [compound 97, 4-[4-(2,4-difluorophenoxy)phenyl]-N-[(2E/Z)-pyrrolidin-2-ylidene]-1,3-thiazole-2-amine]
log P (***): 3.59 | log P (*): 2.03

c1ccc(Oc2ccccc2-c2csc(N=C3CCCN3)n2)cc1 [compound 98, 4-(2-phenoxyphenyl)-N-[(2E/Z)-pyrrolidin-2-ylidene]-1,3-thiazole-2-amine]
log P (**): 2.05 | log P (***): 3.54 | log P (*): 1.92

Clc1ccc(Oc2ccccc2-c2csc(N=C3CCCN3)n2)c(Cl)c1 [compound 99, 4-[2-(2,4-dichlorophenoxy)phenyl]-N-[(2E/Z)-pyrrolidin-2-ylidene]-1,3-thiazole-2-amine]
log P (**): 2.49 | log P (***): 4.43 | log P (*): 2.49

CC(C)(C)c1cc(Oc2ccccc2-c2csc(N=C3CCCN3)n2)ccc1Cl [compound 101, 4-[2-(3-tert-butyl-4-chlorophenoxy)phenyl]-N-[(2E/Z)-pyrrolidin-2-ylidene]-1,3-thiazole-2-amine]
log P (**): 3.09 | log P (***): 5.53 | log P (*): 3.09

Fc1ccc(Oc2ccccc2-c2csc(N=C3CCCN3)n2)c(F)c1 [compound 102, 4-[2-(2,4-difluorophenoxy)phenyl]-N-[(2E/Z)-pyrrolidin-2-ylidene]-1,3-thiazole-2-amine]
log P (***): 3.55 | log P (*): 1.98

Clc1ccc(-c2csc(N=C3CCCCN3)n2)cc1 [compound 103, 4-(4-chlorophenyl)-N-[(2E/Z)-piperidin-2-ylidene]-1,3-thiazole-2-amine]
log P (**): 1.68 | log P (***): 3.47 | log P (*): 1.68
